The source of these data is US6043279A, “Compounds having selective activity for retinoid X receptors, and means for modulation of processes mediated by retinoid X receptors” (priority 1997, dated 2000).

Holding throughout (assay type): cell-based
One assay has as its target T1, RXRα (Homo sapiens, UniProt P19793).
T1 construct: expressed in transfected cells; host or cells: CV-1 (monkey kidney)
T1 sequence (P19793 1-462): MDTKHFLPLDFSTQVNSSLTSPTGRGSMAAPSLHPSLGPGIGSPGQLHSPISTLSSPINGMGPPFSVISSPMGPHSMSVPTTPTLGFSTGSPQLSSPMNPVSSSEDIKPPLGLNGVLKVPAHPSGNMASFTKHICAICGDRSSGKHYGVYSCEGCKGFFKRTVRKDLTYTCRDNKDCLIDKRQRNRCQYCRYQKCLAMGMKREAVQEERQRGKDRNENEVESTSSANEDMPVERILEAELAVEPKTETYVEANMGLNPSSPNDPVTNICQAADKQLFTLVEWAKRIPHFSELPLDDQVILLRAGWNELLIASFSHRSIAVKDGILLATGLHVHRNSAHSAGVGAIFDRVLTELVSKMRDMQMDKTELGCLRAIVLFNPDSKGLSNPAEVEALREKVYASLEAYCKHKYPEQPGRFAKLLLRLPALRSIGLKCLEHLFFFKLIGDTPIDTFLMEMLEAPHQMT
Description: co-transfection (cis-trans) assay in CV-1 cells, RXRα. As to conditions: for Emax: CV-1, maximal response relative to all-trans-retinoic acid at 10^-5 M, read-out: Efficacy RXRα; for EC50: CV-1 cells, luciferase reporter, concentration giving 50% of maximal observed response, read-out: Potency (nM) RXRα. An excerpt: (§1) The co-transfection assay provides a mechanism to evaluate the ability of a compound to modulate the transcription response initiated by an intracellular receptor. […] Berger et al., J. Steroid Biochem. Molec.
(§2) Briefly, the co-transfection assay involves the introduction of two plasmids by transient transfection into a retinoid receptor-negative mammalian cell background. The first plasmid contains a retinoid receptor cDNA and directs constitutive expression of the encoded receptor. The second plasmid contains a cDNA that encodes for a readily quantifiable protein, e.g., firefly luciferase or chloramphenicol acetyl transferase (CAT), under control of a promoter containing a retinoid acid response element, which confers retinoid dependence on the transcription of the reporter. In this co-transfection assay, all retinoid receptors respond to all-trans-retinoic acid in a similar fashion. This assay can be used to accurately measure efficacy and potency of retinoic acid and synthetic retinoids as ligands that interact with the individual retinoid receptor subtypes.
(§3) Accordingly, synthetic retinoid compounds of the current invention were evaluated for their interaction with retinoid receptor subtypes using the co-transfection assay in which CV-1 cells were co-transfected with one of the retinoid receptor subtypes, a reporter construct, and an internal control to allow normalization of the response for transfection efficiency. The following example is illustrative.
(§4) Retinoids: All-trans-retinoic acid (RA) and 13-cis-retinoic acid (13-cis-RA) were obtained from Sigma. […] Retinoids were dissolved in dimethylsulfoxide for use in the transcriptional activation assays.
(§5) Co-transfection Assay In CV-1 Cells: A monkey kidney cell line, CV-1, was used in the cis-trans assay. Cells were transfected with two plasmids. […] The cis-vector contains an easily assayable gene product, in this case the firefly luciferase, coupled to a retinoid-responsive promoter, i.e., an RARE or RXRE. Addition of retinoic acid or an appropriate synthetic retinoid results in the formation of a retinoid-RAR or -RXR complex that activates the expression of luciferase gene, causing light to be emitted from cell extracts. The level of luciferase activity is directly proportional to the effectiveness of the retinoid-receptor complex in activating gene expression. This sensitive and reproducible co-transfection approach permits the identification of retinoids that interact with the different receptor isoforms.
(§6) Cells were cultured in DMEM supplemented with 10% charcoal resin-stripped fetal bovine serum, and experiments were conducted in 96-well plates. […] Cells were transfected for 6 h and then washed to remove the precipitate. The cells were then incubated for 36 h with or without retinoid. […]

A further assay addresses T2, RXRγ (Mus musculus, UniProt P28705).
T2 construct: expressed in transfected cells; host or cells: CV-1 (monkey kidney)
T2 sequence (P28705 1-463): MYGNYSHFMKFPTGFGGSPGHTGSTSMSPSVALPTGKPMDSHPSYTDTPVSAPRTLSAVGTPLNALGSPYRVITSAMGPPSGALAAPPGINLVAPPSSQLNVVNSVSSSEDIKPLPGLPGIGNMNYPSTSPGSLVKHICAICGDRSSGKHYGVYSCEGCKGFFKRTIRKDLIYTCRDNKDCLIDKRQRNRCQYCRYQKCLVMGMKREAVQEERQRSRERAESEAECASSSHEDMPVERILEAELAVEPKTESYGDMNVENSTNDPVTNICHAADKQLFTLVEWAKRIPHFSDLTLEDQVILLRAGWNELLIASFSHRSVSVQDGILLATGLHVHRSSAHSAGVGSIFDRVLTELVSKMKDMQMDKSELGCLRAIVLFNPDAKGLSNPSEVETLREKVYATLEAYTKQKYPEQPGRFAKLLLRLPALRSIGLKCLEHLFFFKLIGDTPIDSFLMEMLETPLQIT
Description: co-transfection (cis-trans) assay in CV-1 cells, RXRγ. The conditions noted are these: for Emax at 10 µM: CV-1, maximal response relative to all-trans-retinoic acid at 10^-5 M, read-out: Efficacy RXRγ; for EC50: CV-1 cells, luciferase reporter, concentration giving 50% of maximal observed response, read-out: Potency (nM) RXRγ.
Text: as §1, §2, §3, §4, §5, §6

The next assay deals with T3, RARβ (Homo sapiens, UniProt P10826).
T3 construct: expressed in transfected cells; host or cells: CV-1 (monkey kidney)
T3 sequence (P10826 1-448 isoform P10826-2): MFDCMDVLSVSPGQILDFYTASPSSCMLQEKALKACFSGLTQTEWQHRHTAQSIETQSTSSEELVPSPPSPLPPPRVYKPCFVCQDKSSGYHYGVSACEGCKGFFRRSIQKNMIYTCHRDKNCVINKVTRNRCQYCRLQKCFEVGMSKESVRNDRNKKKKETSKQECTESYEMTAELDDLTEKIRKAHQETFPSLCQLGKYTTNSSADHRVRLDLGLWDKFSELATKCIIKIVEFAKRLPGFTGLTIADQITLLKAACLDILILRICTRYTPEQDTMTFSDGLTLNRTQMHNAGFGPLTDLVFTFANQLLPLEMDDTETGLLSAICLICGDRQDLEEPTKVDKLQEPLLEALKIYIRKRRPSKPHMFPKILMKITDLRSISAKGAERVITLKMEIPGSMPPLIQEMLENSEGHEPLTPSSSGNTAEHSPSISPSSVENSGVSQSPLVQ
The experiment in a line: co-transfection (cis-trans) assay in CV-1 cells, RARβ. The conditions noted are these: for Emax: CV-1, maximal response relative to all-trans-retinoic acid at 10^-5 M, read-out: Efficacy RARβ; for EC50: CV-1 cells, luciferase reporter, concentration giving 50% of maximal observed response, read-out: Potency (nM) RARβ.
Text: as §1, §2, §3, §4, §5, §6

The structures appear in SMILES notation. A value given as a limit tells only on which side of the number the result lay.

On to `C=C(c1ccc(C(=O)O)cc1)c1ccc(C(C)(C)C)cc1C` [Compound 133, 4-[1-(2-methyl-4-t-butylphenyl)ethenyl]benzoic acid], for which the Emax on RXRα is 86%; at RARβ, under 2%. In addition, the EC50 at RXRα was 440 nM; on RXRγ it was 290 nM; at RARβ, over 10000 nM. Also, the Emax at 10 µM on RXRγ was determined as 91%.

In the case of `Cc1cc(C(C)(C)C)ccc1C(=NO)c1ccc(C(=O)O)cc1` [Compound 137, 4-[(2-methyl-4-t-butylphenyl)carbonyl]benzoic acid oxime], at RXRα, the Emax is 47% and the EC50 was 270 nM. At RXRγ, the Emax at 10 µM came out at 50% and the EC50 came to 190 nM. On RARβ, the Emax is under 2% and the EC50 was over 10000 nM.
